Reference: the supplement of paper PMC10307832

What was measured:
Assay in all cases: relative viability (nuclei count vs DMSO), 5 days (fraction); higher = more cells survive
Carfilzomib = compound: CC(C)C[C@H](NC(=O)[C@H](CCc1ccccc1)NC(=O)CN1CCOCC1)C(=O)N[C@@H](Cc1ccccc1)C(=O)N[C@@H](CC(C)C)C(=O)[C@@]1(C)CO1 [Carfilzomib]
In short: (§1)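 Lung cancer cell lines were seeded into 1536-well plates, kept overnight at 37 °C and pinned with five library-drug doses (not always all listed) spaced by √10. After 5 days, nuclei were Hoechst-stained, imaged at 4× and counted with MetaXpress. Viability is treated-well nuclei over vehicle-well nuclei, taken as a median across plates. Plates needed control CV below 25% and at least one doubling.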

Olaparib = compound: O=C(c1cc(Cc2n[nH]c(=O)c3ccccc23)ccc1F)N1CCN(C(=O)C2CC2)CC1 [Olaparib]
In short: as §1

Crizotinib = compound: C[C@@H](Oc1cc(-c2cnn(C3CCNCC3)c2)cnc1N)c1c(Cl)ccc(F)c1Cl [Crizotinib]
In short: as §1

| Cell Line | relative viability (Carfilzomib; 0.001 µM) | relative viability (Carfilzomib; 0.003162 µM) | relative viability (Carfilzomib; 0.01 µM) | relative viability (Carfilzomib; 0.03162 µM) | relative viability (Carfilzomib; 0.1 µM) | relative viability (Olaparib; 0.08 µM) | relative viability (Olaparib; 0.253 µM) | relative viability (Olaparib; 2.53 µM) | relative viability (Olaparib; 8 µM) | relative viability (Olaparib; 8 µM, anchor plate) | relative viability (Crizotinib; 0.01 µM) | relative viability (Crizotinib; 0.03162 µM) | relative viability (Crizotinib; 0.1 µM) | relative viability (Crizotinib; 0.3162 µM) | relative viability (Crizotinib; 1 µM) | relative viability (Crizotinib; 1 µM, anchor plate) |
| --- | --- | --- | --- | --- | --- | --- | --- | --- | --- | --- | --- | --- | --- | --- | --- | --- |
| 201T | 0.957 | 1.01 | 1.01 | 1.04 | 0.849 | 1.01 | 0.888 | 0.922 | 1.01 | 0.835 | 0.95 | 1 | 0.95 | 1.03 | 1 | 1.01 |
| A549 | 0.967 | 1.03 | 0.954 | 0.525 | 0.043 | 1.13 | 0.875 | 0.898 | 0.681 | 0.361 | 0.963 | 1.03 | 0.948 | 1.04 | 0.987 | 0.755 |
| A-427 | 0.936 | 1.15 | 0.957 | 0.479 | 0.134 | 1.09 | 0.945 | 0.884 | 0.782 | 0.713 | 0.965 | 1.03 | 1.03 |  | 1.01 | 0.906 |
| ABC-1 | 0.92 | 0.75 | 0.39 | 0.221 | 0.291 | 1.15 | 0.882 | 0.863 | 0.932 | 0.847 | 0.845 | 0.885 | 0.995 | 0.878 | 0.982 | 1.18 |
| BEN | 0.902 | 1.09 | 0.944 | 0.843 | 0.433 | 0.948 | 0.775 | 1.01 | 1.03 | 1.06 | 0.867 | 0.974 | 0.886 | 0.807 | 1.02 | 0.86 |
| CAL-12T | 0.933 | 1.19 | 1.1 | 0.736 | 0.138 | 1.21 | 0.966 | 0.976 | 0.888 | 0.706 | 0.917 | 0.973 | 0.974 | 0.837 | 0.981 | 0.683 |
| COR-L23 | 1.06 | 1.13 | 0.846 | 0.0978 | 0.0691 | 1.04 | 1.04 | 0.908 | 0.579 | 0.353 | 1.01 | 1.04 | 0.963 | 0.978 | 0.885 | 0.623 |
| COR-L 105 | 1.06 | 0.931 | 0.962 | 0.318 | 0.26 | 0.896 | 0.87 | 0.763 | 0.785 | 0.697 | 0.844 | 0.938 | 0.901 | 0.847 | 0.932 | 0.826 |
| Calu-6 | 0.992 | 1.09 | 0.92 | 0.306 | 0.11 | 1.13 | 0.936 | 0.937 | 0.789 | 0.584 | 0.986 | 1.03 |  | 0.957 | 1.01 | 0.768 |
| ChaGo-K-1 | 0.884 | 1.05 | 1.01 | 0.864 | 0.304 | 1.05 | 0.925 | 0.906 | 0.788 | 0.422 | 0.977 |  | 0.953 | 0.769 | 0.976 | 1.11 |
| EBC-1 | 1.01 | 1.09 | 0.642 | 0.11 | 0.103 | 1.2 | 0.883 | 0.98 | 0.752 | 0.703 | 0.965 | 1.05 | 0.976 | 0.17 | 0.199 | 0.192 |
| EKVX | 0.913 | 1 | 1.17 | 0.76 | 0.369 | 1.03 | 0.885 | 0.969 | 1.03 | 0.884 | 0.969 | 0.941 | 0.933 | 0.847 | 0.982 | 0.967 |
| EMC-BAC-2 | 0.957 | 1.18 | 1.04 | 0.972 | 0.432 | 1.1 | 0.91 | 1.05 | 0.849 | 0.477 | 1.08 | 0.96 | 0.98 |  | 0.923 | 0.767 |
| EPLC-272H | 0.845 | 1.22 | 0.834 | 0.242 | 0.0648 | 1.17 | 0.889 | 0.968 | 0.878 | 0.832 | 0.883 | 0.932 | 0.937 | 0.778 | 0.955 | 0.912 |
| H3255 | 0.973 | 1.09 | 1.11 | 0.718 | 0.373 | 1.01 | 0.869 | 1.05 | 0.924 | 0.579 | 0.963 | 0.993 | 0.991 | 0.911 | 1.03 | 0.934 |
| HARA | 0.996 | 1.09 | 1.2 | 0.427 | 0.126 | 1.14 | 0.852 | 0.804 | 0.811 | 0.788 | 0.796 |  | 1.03 | 0.779 | 1.02 | 1.04 |
| HCC-15 | 0.954 | 1.07 | 1.07 | 0.709 | 0.177 | 1.09 | 0.904 | 0.999 | 0.878 | 0.731 | 0.917 | 1.04 | 1.01 |  | 0.974 | 0.813 |
| HCC-44 | 0.988 | 0.996 | 1.05 | 0.819 | 0.317 | 1.04 | 0.949 | 1.02 | 1.08 | 0.963 | 0.967 | 0.974 | 1.06 | 0.879 | 0.944 | 0.785 |
| HCC-78 | 0.839 | 1.09 | 1.07 | 0.662 | 0.267 | 1.1 | 0.836 | 0.953 | 0.861 | 0.831 | 0.916 | 0.993 | 1.01 | 0.476 | 0.778 | 0.348 |
| HCC-366 | 0.992 | 1.02 | 1.01 | 1.05 | 0.0704 | 1.05 | 0.988 | 0.943 | 0.862 | 0.352 | 0.952 | 1.01 |  |  | 1.07 | 0.466 |
| HCC-827 | 1.05 | 1.05 | 1.09 | 0.97 | 0.647 | 0.999 | 0.989 | 0.962 | 0.966 | 0.61 | 0.985 | 1.03 | 1.03 | 0.901 | 1.03 |  |
| HOP-62 | 1.04 | 1.09 | 0.92 | 0.251 | 0.106 | 1.08 | 0.984 | 0.997 | 0.722 | 0.384 | 0.96 | 1.01 | 1.03 | 0.874 | 1.04 | 1 |
